How the values were obtained:
[1] = tested on: ovarian and breast tumor xenografts; experiment: Daily oral dosing in ovarian and breast tumor xenografts; format: in vivo
[2] = tested on: ST390 (modeling pancreatic ductal adenocarcinoma (PDAC)); experiment: TGI in PDAC PDX model ST390; format: in vivo, NOD/SCID mice; details: 6 mg/kg QD, PO, vehicle ~1,250 mm^3
Procedure: In the PDAC model, Compound 101 was orally administered to tumor-bearing NOD/SCID mice at 6 mg/kg QD. […] The % regression was calculated as: (Mean TV Compound 101 @ EOT)/(Mean TV Compound 101 @ Day 0)×100. The same calculations were used for end of study (day 42).

[3] = tested on: 12 PDX models (SCLC, TNBC, HGSOC); experiment: TGI and tolerability in 12 PDX models of SCLC, TNBC and HGSOC; format: in vivo
[4] = tested on: BR5010, LU5178, OV15398 PDX models; experiment: TGI in PDX models BR5010 (TNBC), LU5178 (SCLC), OV15398 (HGSOC); format: in vivo, NOD/SCID mice; details: TNBC 10 mg/kg QD or 5 mg/kg BID, HGSOC 3 mg/kg BID, PO 21 days, 21 days follow-up
[5] = Plasma exposure on repeated daily dosing in mice; format: in vivo; details: repeated daily dosing at therapeutic doses in mice (1-6 mg/kg)

For CC1(C)CC[C@H](Nc2ncc(C(F)(F)F)c(-c3c[nH]c4c(P(C)(C)=O)c(C#N)ccc34)n2)CN1 [Compound 101, (S)-7-(dimethylphosphoryl)-3-(2-((6,6-dimethylpiperidin-3-yl)amino)-5-(trifluoromethyl)pyrimidin-4-yl)-1H-indole-6-carbonitrile], the “pharmacodynamic responses in xenograft tumor tissue” value ([1]; correlated with TGI) was “rapid (4 hours) and sustained (24 hours) dose-dependent pharmacodynamic responses”, the “TGI (in words)” value ([1]; daily oral dosing) was “dose-dependent TGI” and the “lowest dose at which tumor regression was observed” value ([1]; daily oral dosing) was “one-fifth of MTD”. The “tumor volume at day 21” value [2] was “about 250 mm^3”, the “TGI at the end of the 21-day dosing period, all models” value ([3]; 6 or 10 mg/kg QD or 3 or 5 mg/kg BID PO, all 12 models) was “at least 50%” and the “body weight loss / tolerability” value ([3]; all once-daily doses tested, tumor-bearing mice) was “no evident body weight loss”. The “tumor regrowth after treatment discontinuation” value ([3]; subset 7/12 models, 21 days after treatment discontinuation) was “no evidence of tumor regrowth”, the “TGI of deep responses in a subset of models” value ([3]; subset of models (58%, 7/12), TGI or regression) was greater than 95% and the “TGI (in words)” value [4] was “deep and sustained TGI, including regressions”. For the same compound, the plasma exposures [5] was “dose proportional without accumulation”.
